Active and inactive are the calls of the source. No cut-off for these calls is given here.
Experiments:
[1] = Apparent clearance during terminal phase in 12 hr starved C57 mouse at 30 mg/kg, po measured for 0.083 to 24 hrs post-dose by LC-MS-MS analysis; assay type: ADME, organism-based; conditions: in vivo, time 0.083-24 hrs
[2] = system: Mus musculus; assay: Anti-ulcerative colitis activity against DSS-induced ulcerative colitis C57BL/6 mouse model assessed as body weight recovery rate at 10 mg/kg, IG via gavage administered for 7 days and measured everyday relative to control; assay type: functional; conditions: time 7 day
[3] = system: Mus musculus; assay: Anti-ulcerative colitis activity in DSS-induced C57BL/6 mouse ulcerative colitis model assessed as colon length recovery ratio at 10 mg/kg, IG via gavage measured after 7 days relative to control; assay type: functional; conditions: time 7 day
[4] = system: Mus musculus; assay: Antiinflammatory activity against DSS-induced C57BL/6 mouse model of acute ulcerative colitis assessed as inhibition ratio of TNF-alpha protein expression at 1 mg/kg, IG via gavage measured after 7 days by ELISA relative to control; assay type: functional; parameters: scale not given: the % may be the effect or the level left; conditions: time 7 day
[5] = system: Mus musculus; assay: Antiinflammatory activity against DSS-induced C57BL/6 mouse model of acute ulcerative colitis assessed as inhibition ratio of IL-6 protein expression at 3 mg/kg, IG via gavage measured after 7 days by ELISA relative to control; assay type: functional; parameters: scale not given: the % may be the effect or the level left; conditions: time 7 day
[6] = system: Mus musculus; assay: Antiinflammatory activity against DSS-induced C57BL/6 mouse model of acute ulcerative colitis assessed as inhibition ratio of IL-6 protein expression at 10 mg/kg, IG via gavage measured after 7 days by ELISA relative to control; assay type: functional; parameters: scale not given: the % may be the effect or the level left; conditions: time 7 day
[7] = system: Mus musculus; assay: Antiinflammatory activity against DSS-induced C57BL/6 mouse model of acute ulcerative colitis assessed as inhibition ratio of IL-23 protein expression at 1 mg/kg, IG via gavage measured after 7 days by ELISA relative to control; assay type: functional; parameters: scale not given: the % may be the effect or the level left; conditions: time 7 day
[8] = system: Mus musculus; assay: Antiinflammatory activity against DSS-induced C57BL/6 mouse model of acute ulcerative colitis assessed as inhibition of TNF-alpha mRNA expression in colon tissue administered intragastrically via gavage measured after 7 days by RT-qPCR analysis; assay type: functional, organism-based; conditions: route ig, time 7.0 day, DDE = dose-dependent effect
[9] = system: Mus musculus; assay: Antiinflammatory activity against DSS-induced C57BL/6 mouse model of acute ulcerative colitis assessed as inhibition ratio of IL-1beta mRNA expression in colon tissue at 10 mg/kg, IG via gavage measured after 7 days by RT-qPCR analysis relative to control; assay type: functional; parameters: scale not given: the % may be the effect or the level left; conditions: time 7 day
[10] = system: Mus musculus; assay: Antiinflammatory activity against DSS-induced C57BL/6 mouse model of acute ulcerative colitis assessed as inhibition ratio of IL-23 mRNA expression in colon tissue at 1 mg/kg, IG via gavage measured after 7 days by RT-qPCR analysis relative to control; assay type: functional; parameters: scale not given: the % may be the effect or the level left; conditions: time 7 day
[11] = system: Mus musculus; assay: Anti-ulcerative colitis activity in IL-10-/- C57BL/6 mouse model of ulcerative colitis assessed as colon length recovery ratio at 1 mg/kg, IG via gavage for 8 weeks relative to control; assay type: functional
[12] = system: Mus musculus; assay: Antiinflammatory activity against IL-10-/- C57BL/6 mouse model of ulcerative colitis assessed as inhibition ratio of TNF-alpha mRNA expression in colon tissue at 10 mg/kg, IG via gavage and measured after 8 weeks by RT-qPCR analysis relative to control; assay type: functional; parameters: scale not given: the % may be the effect or the level left
[13] = system: Mus musculus; assay: Antiinflammatory activity against IL-10-/- C57BL/6 mouse model of ulcerative colitis assessed as inhibition ratio of IL-1beta mRNA expression in colon tissue at 10 mg/kg, IG via gavage and measured after 8 weeks by RT-qPCR analysis relative to control; assay type: functional; parameters: scale not given: the % may be the effect or the level left
[14] = system: Mus musculus; assay: Antiinflammatory activity against IL-10-/- C57BL/6 mouse model of ulcerative colitis assessed as inhibition ratio of IL-6 mRNA expression in colon tissue at 3 mg/kg, IG via gavage and measured after 8 weeks by RT-qPCR analysis relative to control; assay type: functional; parameters: scale not given: the % may be the effect or the level left
[15] = system: Mus musculus; assay: Antiinflammatory activity against IL-10-/- C57BL/6 mouse model of ulcerative colitis assessed as inhibition ratio of IL-6 mRNA expression in colon tissue at 10 mg/kg, IG via gavage and measured after 8 weeks by RT-qPCR analysis relative to control; assay type: functional; parameters: scale not given: the % may be the effect or the level left
[16] = target: T1, Dual specificity mitogen-activated protein kinase kinase 3 (Homo sapiens, UniProt P46734); assay: Binding affinity to CM5 chip immobilized human MKK3 (20 to 347 residues) expressed in Escherichia coli BL21 (DE3) assessed as dissociation constants, KD by surface plasmon resonance analysis
T1 sequence (P46734 whole entry): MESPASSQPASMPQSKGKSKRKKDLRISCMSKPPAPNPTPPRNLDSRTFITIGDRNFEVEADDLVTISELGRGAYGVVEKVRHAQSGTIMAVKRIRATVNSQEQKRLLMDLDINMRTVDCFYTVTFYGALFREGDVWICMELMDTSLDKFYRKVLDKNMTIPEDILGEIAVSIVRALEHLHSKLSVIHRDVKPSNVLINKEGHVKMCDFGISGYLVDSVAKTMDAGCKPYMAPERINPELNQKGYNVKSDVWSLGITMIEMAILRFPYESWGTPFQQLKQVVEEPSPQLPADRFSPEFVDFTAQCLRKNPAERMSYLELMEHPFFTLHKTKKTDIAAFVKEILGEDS

[17] = target: T2, Dual specificity mitogen-activated protein kinase kinase 3 (Mus musculus) (UniProt O09110); assay: Binding affinity to MKK3 in mouse RAW264.7 cells assessed as increase in thermal stability by measuring change in melting temperature at 6.25 uM incubated for 24 hrs by CETSA; assay type: cell-based
T2 sequence (whole entry): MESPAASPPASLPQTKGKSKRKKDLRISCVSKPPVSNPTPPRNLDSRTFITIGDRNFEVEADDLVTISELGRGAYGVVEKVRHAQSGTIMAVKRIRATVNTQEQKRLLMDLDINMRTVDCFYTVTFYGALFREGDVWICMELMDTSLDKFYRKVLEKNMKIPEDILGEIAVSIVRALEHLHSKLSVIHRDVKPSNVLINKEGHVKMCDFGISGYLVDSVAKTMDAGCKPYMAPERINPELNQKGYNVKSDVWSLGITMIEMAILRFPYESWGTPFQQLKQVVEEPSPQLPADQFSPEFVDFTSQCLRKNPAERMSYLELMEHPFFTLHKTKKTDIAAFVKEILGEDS

[18] = system: Mus musculus; assay: Anti-ulcerative colitis activity against DSS-induced ulcerative colitis C57BL/6 mouse model assessed as reduction in DAI score at 10 mg/kg, IG via gavage administered for 7 days and measured everyday (reference value: 4.0); assay type: functional; conditions: time 7 day
[19] = system: Mus musculus; assay: Anti-ulcerative colitis activity against DSS-induced ulcerative colitis C57BL/6 mouse model assessed as reduction in DAI recovery score ratio at 1 mg/kg, IG via gavage administered for 7 days and measured everyday relative to control; assay type: functional; parameters: scale not given: the % may be the effect or the level left; conditions: time 7 day
[20] = system: Mus musculus; assay: Anti-ulcerative colitis activity against DSS-induced ulcerative colitis C57BL/6 mouse model assessed as reduction in DAI recovery score ratio at 50 mg/kg, IG via gavage administered for 7 days and measured everyday relative to control; assay type: functional; parameters: scale not given: the % may be the effect or the level left; conditions: time 7 day
[21] = system: Mus musculus; assay: Antiinflammatory activity against DSS-induced C57BL/6 mouse model of acute ulcerative colitis assessed as reduction in serum IL-23 levels administered intragastrically via gavage measured after 7 days by ELISA; assay type: functional, organism-based; conditions: dose 1-10 mg/kg, route ig, time 7.0 day, DDE = dose-dependent effect
[22] = system: Mus musculus; assay: Anti-ulcerative colitis activity in IL-10-/- C57BL/6 mouse ulcerative colitis model assessed as animal survival at 3 to 10 mg/kg, IG via gavage for 8 weeks; assay type: functional, organism-based; conditions: dose 3-10 mg/kg

## COc1ccc([C@H]2CC(=O)c3cc(OC)cc(OC)c32)cc1
[1]
  CLz/F: 4.83 mL/min/kg
[2]
  Activity: 52.4%
[3]
  Activity: 57.6%
[4]
  Activity: 32.9%
[5]
  Activity: 53.5%
[6]
  Activity: 56.1%
[7]
  Activity: 46.2%
[8]
  Activity: Dde
[9]
  Activity: 95.6%
[10]
  Activity: 71.7%
[11]
  Activity: 17.7%
[12]
  Activity: 68.5%
[13]
  Activity: 43.8%
[14]
  Activity: 37.1%
[15]
  Activity: 48.6%
[16]
  Kd: 71 nM
[17]
  ΔTm: 2 °C
[18]
  Activity: 2.2
[19]
  Activity: 20%
[20]
  Activity: 22.7%
[21]
  Activity: Dde
[22]
  Activity: Active

Reference: ChEMBL document CHEMBL5154881, “Discovery of First-in-Class TAK1-MKK3 Protein-Protein Interaction (PPI) Inhibitor (R)-STU104 for the Treatment of Ulcerative Colitis through Modulating TNF-α Production” (J Med Chem, 2022)
